Measured values published in patent US20150141381A1, “TETRACYCLINE COMPOUNDS HAVING TARGET THERAPEUTIC ACTIVITIES” (Paratek Pharmaceuticals, Inc., priority 2001, published 2015).
Like-named read-outs stand apart in the source and are kept apart here.

Experiments:
S. aureus RN450 = assay: In Vitro Anti-Bacterial Activity Assay (MIC), gram positive; type: cell-based; conditions: for MIC: Staphylococcus aureus, RN450, 18 h
E. coli mL308 225 = assay: In Vitro Anti-Bacterial Activity Assay (MIC), gram negative; type: cell-based; conditions: for MIC: Escherichia coli, ML308225, 18 h
[1] = MIC class, Table 3 (Continued), read-out: Gram+ activity
[2] = MIC class, Table 3 (Continued), read-out: Gram− activity
[3] = gram positive bacteria, read-out: Antibiotic Activity Gram + (MIC)
[4] = gram negative bacteria, read-out: Antibiotic Activity Gram − (MIC)

Compound | MIC (S. aureus RN450; [1]) [µg/mL] | MIC (S. aureus RN450; [3]) [µg/mL] | MIC (E. coli mL308 225; [4]) [µg/mL] | also measured
CN(C)[C@@H]1C(O)=C(C(N)=O)C(=O)[C@@]2(O)C(O)=C3C(=O)c4c(O)ccc(-c5ccc6c(c5)OCO6)c4C[C@H]3C[C@@H]12 [drawing 3286] | < 4 | – | – | MIC (E. coli mL308 225; [2]): < 4 µg/mL
CN(C)[C@@H]1C(O)=C(C(N)=O)C(=O)[C@@]2(O)C(O)=C3C(=O)c4c(O)ccc(-c5ccoc5)c4C[C@H]3C[C@@H]12 [drawing 3287] | < 4 | – | – | MIC (E. coli mL308 225; [2]): < 4 µg/mL
COc1ccc(-c2ccc(O)c3c2C[C@H]2C[C@H]4[C@H](N(C)C)C(O)=C(C(N)=O)C(=O)[C@@]4(O)C(O)=C2C3=O)cc1 [drawing 3310] | < 4 | – | – | MIC (E. coli mL308 225; [2]): < 4 µg/mL
CN(C)[C@@H]1C(O)=C(C(N)=O)C(=O)[C@@]2(O)C(O)=C3C(=O)c4c(O)ccc(-c5cc6ccccc6o5)c4C[C@H]3C[C@@H]12 [drawing 3311] | < 4 | – | – | MIC (E. coli mL308 225; [2]): < 4 µg/mL
COc1ccc(-c2ccc(O)c3c2C[C@H]2C[C@H]4[C@H](N(C)C)C(O)=C(C(N)=O)C(=O)[C@@]4(O)C(O)=C2C3=O)cc1 [drawing 3312] | – | – | – | Gram+ activity (S. aureus RN450; MIC class, Table 3 (Continued)): ** (compounds with MIC less than or equal to 4 μg/ml are indicated with **); Gram− activity (E. coli mL308 225; MIC class, Table 3 (Continued)): ** (compounds with MIC less than or equal to 4 μg/ml are indicated with **)
CN(C)[C@@H]1C(O)=C(C(N)=O)C(=O)[C@@]2(O)C(O)=C3C(=O)c4c(O)ccc(-c5ccc(C(C)(C)C)cc5)c4C[C@H]3C[C@@H]12 [drawing 3327] | < 4 | – | – | Gram− activity (E. coli mL308 225; number printed instead of class symbol, Table 3 (Continued)): 1.5
Cc1ccc(/C=C/c2ccc(O)c3c2C[C@H]2C[C@H]4[C@H](N(C)C)C(O)=C(C(N)=O)C(=O)[C@@]4(O)C(O)=C2C3=O)cc1 [drawing 3339] | < 4 | – | – | MIC (E. coli mL308 225; [2]): < 4 µg/mL
Cc1ccc(/C=C/c2ccc(O)c3c2C[C@H]2C[C@H]4[C@H](N(C)C)C(O)=C(C(N)=O)C(=O)[C@@]4(O)C(O)=C2C3=O)cc1 [drawing 3345] | – | < 4 | < 4 | –
CN(C)c1cc(NC(=O)Oc2ccccc2)c(O)c2c1C[C@H]1C[C@H]3[C@H](N(C)C)C(O)=C(C(N)=O)C(=O)[C@@]3(O)C(O)=C1C2=O [drawing 3360] | – | – | – | MIC (S. aureus RN450; read-out: Antibiotic Activity Gram + (MIC)): > 4 µg/mL; MIC (E. coli mL308 225; read-out: Antibiotic Activity Gram − (MIC)): > 4 µg/mL
CCOC(=O)Nc1cc(N(C)C)c2c(c1O)C(=O)C1=C(O)[C@]3(O)C(=O)C(C(N)=O)=C(O)[C@@H](N(C)C)[C@@H]3C[C@@H]1C2 [drawing 3362] | – | < 4 | < 4 | –
CCOC(=O)Nc1cc(N(C)C)c2c(c1O)C(=O)C1=C(O)[C@]3(O)C(=O)C(C(N)=O)=C(O)[C@@H](N(C)C)[C@@H]3C[C@@H]1C2 [drawing 3364] | – | – | – | Antibiotic Activity Gram + (MIC) (S. aureus RN450; gram positive bacteria): ** (compounds with MIC less than or equal to 4 μg/ml are indicated with **); Antibiotic Activity Gram − (MIC) (E. coli mL308 225; gram negative bacteria): ** (compounds with MIC less than or equal to 4 μg/ml are indicated with **)
CC(C)CNCc1cc(N(C)C)c2c(c1O)C(=O)C1=C(O)[C@]3(O)C(=O)C(C(N)=O)=C(O)[C@@H](N(C)C)[C@@H]3C[C@@H]1C2 [drawing 3371] | – | – | – | Antibiotic Activity Gram + (MIC) (S. aureus RN450; gram positive bacteria): ** (compounds with MIC less than or equal to 4 μg/ml are indicated with **); Antibiotic Activity Gram − (MIC) (E. coli mL308 225; gram negative bacteria): ** (compounds with MIC less than or equal to 4 μg/ml are indicated with **)
CN(C)[C@@H]1C(O)=C(C(N)=O)C(=O)[C@@]2(O)C(O)=C3C(=O)c4c(O)ccc(-c5cc6ccccc6o5)c4C[C@H]3C[C@@H]12 [drawing 3387] | – | < 4 | > 4 | –
CN(C)CCC(=O)c1ccc(O)c2c1C[C@H]1C[C@H]3[C@H](N(C)C)C(O)=C(C(N)=O)C(=O)[C@@]3(O)C(O)=C1C2=O [drawing 3401] | – | < 4 | > 4 | –
COc1ccc(-c2ccc(O)c3c2C[C@H]2C[C@H]4[C@H](N(C)C)C(O)=C(C(N)=O)C(=O)[C@@]4(O)C(O)=C2C3=O)cc1 [drawing 3425] | – | < 4 | < 4 | –
CN(C)[C@@H]1C(O)=C(C(N)=O)C(=O)[C@@]2(O)C(O)=C3C(=O)c4c(O)ccc(-c5ccc(C(C)(C)C)cc5)c4C[C@H]3C[C@@H]12 [drawing 3426] | – | < 4 | < 4 | –
CN(C)[C@@H]1C(O)=C(C(N)=O)C(=O)[C@@]2(O)C(O)=C3C(=O)c4c(O)ccc(-c5ccoc5)c4C[C@H]3C[C@@H]12 [drawing 3429] | – | < 4 | < 4 | –
CN(C)c1cc(CNCC(C)(C)C)c(O)c2c1C[C@H]1C[C@H]3[C@H](N(C)C)C(O)=C(C(N)=O)C(=O)[C@@]3(O)C(O)=C1C2=O [drawing 3433] | – | < 4 | > 4 | –
CC(C)CNCc1cc(N(C)C)c2c(c1O)C(=O)C1=C(O)[C@]3(O)C(=O)C(C(N)=O)=C(O)[C@@H](N(C)C)[C@@H]3C[C@@H]1C2 [drawing 3469] | – | < 4 | < 4 | –
CC(C)CNCc1cc(N(C)C)c2c(c1O)C(=O)C1=C(O)[C@]3(O)C(=O)C(C(N)=O)=C(O)[C@@H](N(C)C)[C@@H]3C[C@@H]1C2 [drawing 3475] | – | – | – | Antibiotic Activity Gram + (MIC) (S. aureus RN450; gram positive bacteria): * (compounds with an MIC of greater than 4 μg/ml are indicated with *); Antibiotic Activity Gram − (MIC) (E. coli mL308 225; gram negative bacteria): * (compounds with an MIC of greater than 4 μg/ml are indicated with *)
